Experimental data from US9453008B2, “Antithrombotic and antiatherosclerotic agent and method for producing same (variants)” (PROTON OOO, priority 2011, dated 2016).
Marks after values point to notes of the source that are not given here.

What was measured:
[1] = system: ADP-induced platelet aggregation; assay: ADP-induced platelet aggregation following peroral administration in rabbits; format: in vivo, rabbit
Method: FIG. 2 is a graph showing the changes in platelet functional activity following peroral administration of the compound I in a model of ADP-induced aggregation in rabbits (% compared to control).
Antiplatelet activity was assessed by the effect of the compound on platelet aggregation of rabbit blood plasma, induced by ADP (adenosine diphosphate) and arachidonic acid. Platelet aggregation was assessed by the change of optical density of plasma. Studies were performed using both intravenous administration, in comparison with sodium nitroprusside, and oral administration, in comparison with acetylsalicylic acid. Compound I was used in concentrations of 10^−3-10^−7 M (parenteral administration) and in 4-8 and 12 mg/kg doses (oral administration).

[2] = target: T1, soluble guanylate cyclase of human platelets (Homo sapiens, UniProt Q02108+Q02153); assay: Specific activity of soluble guanylate cyclase of human platelets; format: biochemical; design: Activation: unit: % of initial activity
T1 construct: soluble guanylate cyclase of human platelets; from tissue; host or cells: human platelets
T1 sequence (Q02153 1-619): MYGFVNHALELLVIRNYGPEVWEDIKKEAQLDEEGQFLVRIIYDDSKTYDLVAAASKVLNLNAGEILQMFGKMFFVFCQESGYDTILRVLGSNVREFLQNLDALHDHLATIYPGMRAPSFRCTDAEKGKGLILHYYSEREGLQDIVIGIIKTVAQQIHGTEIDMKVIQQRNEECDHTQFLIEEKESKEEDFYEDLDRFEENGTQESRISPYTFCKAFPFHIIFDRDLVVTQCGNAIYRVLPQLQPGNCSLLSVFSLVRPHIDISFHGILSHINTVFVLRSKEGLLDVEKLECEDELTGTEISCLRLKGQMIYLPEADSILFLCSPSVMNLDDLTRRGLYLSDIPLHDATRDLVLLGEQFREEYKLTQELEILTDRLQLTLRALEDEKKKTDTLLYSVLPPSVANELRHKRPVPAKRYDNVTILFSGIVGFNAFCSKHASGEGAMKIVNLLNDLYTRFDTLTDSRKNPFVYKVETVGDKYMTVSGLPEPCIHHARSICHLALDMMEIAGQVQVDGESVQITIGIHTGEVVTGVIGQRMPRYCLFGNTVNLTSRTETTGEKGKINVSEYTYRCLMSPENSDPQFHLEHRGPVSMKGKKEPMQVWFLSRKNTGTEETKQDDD
T1 sequence (Q02108 1-690): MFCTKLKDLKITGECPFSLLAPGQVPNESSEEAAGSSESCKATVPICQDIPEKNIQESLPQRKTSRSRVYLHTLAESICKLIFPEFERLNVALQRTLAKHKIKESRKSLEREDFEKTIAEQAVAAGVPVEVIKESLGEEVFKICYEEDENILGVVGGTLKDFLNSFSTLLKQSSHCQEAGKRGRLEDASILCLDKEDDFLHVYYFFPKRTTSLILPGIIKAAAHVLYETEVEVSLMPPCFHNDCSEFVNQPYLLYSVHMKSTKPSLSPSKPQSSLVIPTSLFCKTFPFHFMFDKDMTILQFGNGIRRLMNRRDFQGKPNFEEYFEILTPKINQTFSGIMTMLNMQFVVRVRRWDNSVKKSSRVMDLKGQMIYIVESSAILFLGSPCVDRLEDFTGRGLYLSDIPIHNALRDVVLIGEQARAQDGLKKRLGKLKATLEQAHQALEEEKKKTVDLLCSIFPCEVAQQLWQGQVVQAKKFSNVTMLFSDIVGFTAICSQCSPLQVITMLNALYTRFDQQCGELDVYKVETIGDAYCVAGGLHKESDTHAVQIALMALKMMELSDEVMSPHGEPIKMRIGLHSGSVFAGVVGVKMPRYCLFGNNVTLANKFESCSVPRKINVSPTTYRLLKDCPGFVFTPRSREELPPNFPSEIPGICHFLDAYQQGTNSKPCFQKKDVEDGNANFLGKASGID

[3] = Cumulation after 28 days administration; format: in vivo
Source text: Acute toxicity of the compound in mice in internal administration is 8.9±0.75 g/kg, cumulation after 28 days administration is weak (lethality less than 50%).

[4] = General toxicity and tolerability on animals; format: in vivo
Method: Research of antiplatelet properties of the compound I, its effect on the activity of soluble guanylate cyclase and NO generation was performed by experimentation in vitro, its ability to exert hypotensive and antihypertensive action was studied on animals. General toxicity and tolerability of the compound of formula I were studied on animals.

[5] = system: non-narcotized SHT rats; assay: Blood pressure in non-narcotized SHT rats, intragastric administration (non-invasive BP measurement); format: in vivo, rat
Method: In experiments on non-narcotized SHT rats intragastric administration of the compound of formula I has caused dose-dependent reduction of BP, the duration of which was increased correspondingly with dose increase (maximal duration of effect 5 hours after single administration of 50 mg/kg dose, Table 3).

CN1CC(CO)O/C1=C(C#N)/C=C1/Nc2ccccc2C1=O (stereo not shown) [Compound I, 2-[2-Cyano-2-[5-(hydroxymethyl)-3-methyl-1,3-oxazolidin-2-ylidene]ethylidene]indolin-3-one]
Duration of effect on ADP-induced aggregation ([1]; enteral administration): about 3 hours
Inhibition of ADP-induced aggregation (maximal potency) ([1]; peroral, rabbits, after 2 hours): 40%
Inhibition of ADP-induced aggregation ([1]; peroral, rabbits, after the first hour): 30%
Inhibition of ADP-induced aggregation (as a tendency) ([1]; peroral, rabbits, persisting for all 4 hours of observation): 15-25%
Activation of soluble guanylate cyclase (in words) [2]: approaches that of L-arginine
average degree of activation of the enzyme ([2]; 0.1 mM concentration): 2.12 times
Activation, Mean M ± m ([2]; 0.1 mmol, mean of 5 samples): 212 ± 67
Specific activity of GC, Mean M ± m ([2]; 0.1 mmol, mean of 5 samples (initial 174 ± 33)): 342 ± 86 pmol cGMP/min/mg protein
Activation ([2]; 0.1 mmol, sample number 1): 446
Specific activity of GC ([2]; 0.1 mmol, sample number 1 (initial 133)): 593 pmol cGMP/min/mg protein
Activation ([2]; 0.1 mmol, sample number 2): 153
Specific activity of GC ([2]; 0.1 mmol, sample number 2 (initial 235)): 450 pmol cGMP/min/mg protein
Activation ([2]; 0.1 mmol, sample number 3): 146
Specific activity of GC ([2]; 0.1 mmol, sample number 3 (initial 100)): 146 pmol cGMP/min/mg protein
Activation ([2]; 0.1 mmol, sample number 4): 189
Specific activity of GC ([2]; 0.1 mmol, sample number 4 (initial 140)): 265 pmol cGMP/min/mg protein
Activation ([2]; 0.1 mmol, sample number 5): 122
Specific activity of GC ([2]; 0.1 mmol, sample number 5 (initial 211)): 256 pmol cGMP/min/mg protein
Lethality [3]: less than 50%
General toxicity and tolerability [4]: non-toxic, well tolerated
Neurotoxicity ([4]; relatively high doses): does not exhibit neurotoxicity
Reduction of BP, mmHg ([5]; 1 mg/kg orally, time column 1 (hours), 1 h after dosing): 20* mmHg
Reduction of BP, mmHg ([5]; 1 mg/kg orally, time column 2, 2 h after dosing): 10 mmHg
Reduction of BP, mmHg ([5]; 1 mg/kg orally, time column 3, 0 - absence of effect, 3 h after dosing): 0 mmHg
Reduction of BP, mmHg ([5]; 1 mg/kg orally, time column 4, 0 - absence of effect, 4 h after dosing): 0 mmHg
Reduction of BP, mmHg ([5]; 1 mg/kg orally, time column 5, 0 - absence of effect, 5 h after dosing): 0 mmHg
Reduction of BP, mmHg ([5]; 1 mg/kg orally, time column 6, 0 - absence of effect, 6 h after dosing): 0 mmHg
Reduction of BP, mmHg ([5]; 5 mg/kg orally, time column 1, 1 h after dosing): 17* mmHg
Reduction of BP, mmHg ([5]; 5 mg/kg orally, time column 2, 2 h after dosing): 20* mmHg
Reduction of BP, mmHg ([5]; 5 mg/kg orally, time column 3, 3 h after dosing): 32* mmHg
Reduction of BP, mmHg ([5]; 5 mg/kg orally, time column 4, 4 h after dosing): 30* mmHg
Reduction of BP, mmHg ([5]; 5 mg/kg orally, time column 5, 5 h after dosing): 15 mmHg
Reduction of BP, mmHg ([5]; 5 mg/kg orally, time column 6, 0 - absence of effect, 6 h after dosing): 0 mmHg
Reduction of BP, mmHg ([5]; 10 mg/kg orally, time column 1, 0 - absence of effect, 1 h after dosing): 23* mmHg
Reduction of BP, mmHg ([5]; 10 mg/kg orally, time column 2, 0 - absence of effect, 2 h after dosing): 30* mmHg
Reduction of BP, mmHg ([5]; 10 mg/kg orally, time column 3, 0 - absence of effect, 3 h after dosing): 37 mmHg
Reduction of BP, mmHg ([5]; 10 mg/kg orally, time column 4, 0 - absence of effect, 4 h after dosing): 35 mmHg
Reduction of BP, mmHg ([5]; 10 mg/kg orally, time column 5, 0 - absence of effect, 5 h after dosing): 17* mmHg
Reduction of BP, mmHg ([5]; 10 mg/kg orally, time column 6, 0 - absence of effect, 6 h after dosing): 0 mmHg
Reduction of BP, mmHg ([5]; 25 mg/kg orally, time column 1, 1 h after dosing): 26* mmHg
Reduction of BP, mmHg ([5]; 25 mg/kg orally, time column 2, 2 h after dosing): 32* mmHg
Reduction of BP, mmHg ([5]; 25 mg/kg orally, time column 3, 3 h after dosing): 45* mmHg
Reduction of BP, mmHg ([5]; 25 mg/kg orally, time column 4, 4 h after dosing): 45* mmHg
Reduction of BP, mmHg ([5]; 25 mg/kg orally, time column 5, 5 h after dosing): 25* mmHg
Reduction of BP, mmHg ([5]; 25 mg/kg orally, time column 6, 0 - absence of effect, 6 h after dosing): 0 mmHg
Reduction of BP, mmHg ([5]; 50 mg/kg orally, time column 1, 1 h after dosing): 25* mmHg
Reduction of BP, mmHg ([5]; 50 mg/kg orally, time column 2, 2 h after dosing): 42* mmHg
Reduction of BP, mmHg ([5]; 50 mg/kg orally, time column 3, 3 h after dosing): 50* mmHg
Reduction of BP, mmHg ([5]; 50 mg/kg orally, time column 4, 4 h after dosing): 50* mmHg
Reduction of BP, mmHg ([5]; 50 mg/kg orally, time column 5, 5 h after dosing): 25* mmHg
Reduction of BP, mmHg ([5]; 50 mg/kg orally, time column 6, 0 - absence of effect, 6 h after dosing): 0 mmHg
Maximal duration of BP-reducing effect ([5]; single intragastric administration of 50 mg/kg dose): 5 h
